Results published in patent publication US12649750B2, “Macrocyclic compounds, compositions, and methods of using thereof” (Sionna Therapeutics Inc., priority 2022, dated 2026).

Legend:
NBD1 = target: T1, NBD1 (Homo sapiens, UniProt P13569); assay: Aggregation analysis using differential static light scattering (DSLS), thermal stability of NBD1 (ΔTagg); assay type: binding; details: ΔTagg versus DMSO control, NBD1 0.2 mg/ml
T1 construct: Purified recombinant NBD1 was produced using previously described methods; made in house
Summary of the method: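 NBD1 0.2 mg/ml, S200 buffer (50 mM Tris-HCl, 150 mM NaCl, 5 mM MgCl2, 2 mM ATP, 2 mM DTT, pH7.6) + 1% glycerol; cpd in DMSO; oil overlay. Ramp 25→70° C. at 1° C./min, DSLS images every 0.5° C. ΔTagg = Tagg (inflection) − mean DMSO Tagg.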

CFTR = target: T2, CFTR (Homo sapiens, UniProt P13569, DEL508-508); assay: TECC24 AUC fold over DMSO @10 μM, CFTR-mediated transepithelial chloride transport in CF-HBE cells; assay type: cell-based; details: test agent AUC divided by DMSO vehicle AUC, primary CF-HBE cells, ΔF508 homozygous donor, 48 hours incubation
T2 construct: Primary human bronchial epithelial cells from a ΔF508 homozygous CF donor; host or cells: primary human bronchial epithelial cells (CF-HBE), ΔF508 homozygous donor
Summary of the method: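 Value is ratio of test-agent to DMSO AUC of equivalent transepithelial Cl− current, integrated from forskolin (10 μM) stimulation to CFTR inhibitor-172 (20 μM) block, with benzamil 10 μM present. CF-HBE (ΔF508/ΔF508) cultures had 48 h compound exposure at 10 μM, 36.5° C before recording.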

T2 sequence (P13569 with tags, fused parts or gaps DEL508-508): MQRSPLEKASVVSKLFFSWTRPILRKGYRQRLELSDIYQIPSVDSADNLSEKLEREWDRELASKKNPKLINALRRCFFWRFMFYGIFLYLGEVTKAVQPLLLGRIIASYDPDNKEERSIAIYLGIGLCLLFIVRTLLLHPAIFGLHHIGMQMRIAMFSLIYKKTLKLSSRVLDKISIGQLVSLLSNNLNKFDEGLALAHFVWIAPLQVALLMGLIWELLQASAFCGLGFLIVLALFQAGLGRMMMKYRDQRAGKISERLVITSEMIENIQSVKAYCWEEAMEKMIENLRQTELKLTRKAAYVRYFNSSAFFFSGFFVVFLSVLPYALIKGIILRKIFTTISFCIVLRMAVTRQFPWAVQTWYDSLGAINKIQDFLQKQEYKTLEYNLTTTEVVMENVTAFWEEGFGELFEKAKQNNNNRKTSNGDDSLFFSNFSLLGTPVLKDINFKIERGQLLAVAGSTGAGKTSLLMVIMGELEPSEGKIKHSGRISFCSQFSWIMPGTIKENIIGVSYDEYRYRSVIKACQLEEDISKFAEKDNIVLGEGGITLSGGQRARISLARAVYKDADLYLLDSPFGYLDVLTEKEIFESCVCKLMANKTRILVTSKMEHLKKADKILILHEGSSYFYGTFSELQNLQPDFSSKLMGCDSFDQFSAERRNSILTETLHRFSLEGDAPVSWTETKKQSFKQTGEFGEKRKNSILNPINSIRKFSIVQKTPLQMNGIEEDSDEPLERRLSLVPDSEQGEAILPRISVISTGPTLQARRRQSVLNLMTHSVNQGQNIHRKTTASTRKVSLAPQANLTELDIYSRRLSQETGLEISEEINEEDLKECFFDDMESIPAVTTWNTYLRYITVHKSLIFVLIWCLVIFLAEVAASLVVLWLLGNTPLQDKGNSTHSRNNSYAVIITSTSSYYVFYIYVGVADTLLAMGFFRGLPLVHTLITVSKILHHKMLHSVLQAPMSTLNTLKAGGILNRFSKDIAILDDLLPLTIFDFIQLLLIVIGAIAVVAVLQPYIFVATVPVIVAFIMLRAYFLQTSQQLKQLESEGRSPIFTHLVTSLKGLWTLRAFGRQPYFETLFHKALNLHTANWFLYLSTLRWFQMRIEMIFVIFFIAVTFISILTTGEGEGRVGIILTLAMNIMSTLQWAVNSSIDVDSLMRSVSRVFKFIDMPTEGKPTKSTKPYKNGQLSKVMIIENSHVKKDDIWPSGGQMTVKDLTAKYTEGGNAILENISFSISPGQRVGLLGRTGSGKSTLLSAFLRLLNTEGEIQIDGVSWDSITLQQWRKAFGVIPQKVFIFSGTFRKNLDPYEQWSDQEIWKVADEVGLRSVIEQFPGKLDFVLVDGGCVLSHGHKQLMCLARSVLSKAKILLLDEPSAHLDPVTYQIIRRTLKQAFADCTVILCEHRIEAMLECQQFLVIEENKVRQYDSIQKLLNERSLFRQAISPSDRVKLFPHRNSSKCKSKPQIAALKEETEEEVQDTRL
T1 sequence (P13569 423-646 limits assumed): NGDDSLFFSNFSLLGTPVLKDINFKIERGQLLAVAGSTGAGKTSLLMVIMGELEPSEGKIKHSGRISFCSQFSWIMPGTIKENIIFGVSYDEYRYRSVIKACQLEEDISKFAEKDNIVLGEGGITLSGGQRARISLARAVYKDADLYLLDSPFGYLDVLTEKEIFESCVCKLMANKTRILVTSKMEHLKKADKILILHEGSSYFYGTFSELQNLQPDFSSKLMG

Row | Compound | DSLS 3D (100 μM ΔT) (NBD1) | TECC (AUC, 10 μM) (CFTR)
1 | Cn1nc2nc1-c1cc(ccn1)Sc1c(F)cc3[nH]ccc3c1CCS(=O)(=O)CC(C)(C)CCC[C@]2(C)c1cccc(CC(C)(C)C(=O)O)c1 [Compound 273, 3-[3-[(6R)-22-Fluoro-3,6,10,10-tetramethyl-12,12-dioxo-12λ6,24-dithia-3,4,19,28,30-pentazapentacyclo[23.3.1.12,5.015,23.016,20]triaconta-1(29),2(30),4,15,17,20,22,25,27-nonaen-6-yl]phenyl]-2,2-dimethyl-propanoic Acid] | C (a value greater than 10 °C and less than or equal to 25 °C is marked “C”) | B (a value between 12-20 is marked “B”)
2 | Cn1nc2nc1-c1cc(ccc1F)Oc1c(F)cc3[nH]ccc3c1CCS(=O)(=O)CC(C)(C)CCCC2(C)c1cccc(CCO)c1 (single isomer, unassigned) [Compound 4A, 2-[3-(22,28-Difluoro-3,6,10,10-tetramethyl-12,12-dioxo-24-oxa-12λ^6-thia-3,4,19,30-tetrazapentacyclo[23.3.1.1^2,5.0^15,23.0^16,20]triaconta-1(29),2(30),4,15,17,20,22,25,27-nonaen-6-yl)phenyl]ethanol] | C (a value greater than 10 °C and less than or equal to 25 °C is marked “C”) | C (a value between 20 and 80 is marked “C”)
3 | Cn1nc2nc1-c1cc(ccc1F)Oc1c(F)c(F)c3[nH]ccc3c1CCS(=O)(=O)CC(C)(C)CCCC2(C#N)c1cccc(CC2(C(=O)O)CC2)c1 (single isomer, unassigned) [Compound 121A, 1-[[3-(6-cyano-21,22,28-trifluoro-3,10,10-trimethyl-12,12-dioxo-24-oxa-12λ6-thia-3,4,19,30-tetrazapentacyclo[23.3.1.12,5.015,23.016,20]triaconta-1(29),2(30),4,15,17,20,22,25,27-nonaen-6-yl)phenyl]methyl]cyclopropanecarboxylic Acid] | C (a value greater than 10 °C and less than or equal to 25 °C is marked “C”) | B (a value between 12-20 is marked “B”)
4 | Cn1nc2nc1-c1cc(ccc1F)Sc1c(F)c(F)c3[nH]ccc3c1CCS(=O)(=O)CC(C)(C)CCC[C@]2(C)c1cccc(CC(C)(C)C(=O)O)c1 [Compound 279, 2,2-Dimethyl-3-[3-[(6R)-21,22,28-trifluoro-3,6,10,10-tetramethyl-12,12-dioxo-12λ6,24-dithia-3,4,19,30-tetrazapentacyclo[23.3.1.12,5.015,23.016,20]triaconta-1(29),2(30),4,15,17,20,22,25,27-nonaen-6-yl]phenyl]propanoic Acid] | C (a value greater than 10 °C and less than or equal to 25 °C is marked “C”) | C (a value between 20 and 80 is marked “C”)
5 | C/C(=C\c1cccc(C2(C)CCCC(C)(C)CS(=O)(=O)CCc3c(c(F)cc4[nH]ccc34)Cc3ccc(F)c(c3)-c3nc2nn3C)c1)C(=O)O (single isomer, unassigned) [Compound 166B, (E)-3-[3-(22,28-difluoro-3,6,10,10-tetramethyl-12,12-dioxo-12λ6-thia-3,4,19,30-tetrazapentacyclo-[23.3.1.12,5.015,23.016,20]triaconta-1(29),2(30),4,15,17,20,22,25,27-nonaen-6-yl)phenyl]-2-methyl-prop-2-enoic Acid] | A (an ΔTagg value less than or equal to 5 °C is marked “A”) | A (a TECC value less than 12 is marked “A”)
6 | Cn1nc2nc1-c1cc(ccc1F)[S+]([O-])c1c(F)cc3[nH]ccc3c1CCS(=O)(=O)CC(C)(C)CCC[C@]2(C)c1ccccc1 (single isomer, unassigned) [Compound 223B] | C (a value greater than 10 °C and less than or equal to 25 °C is marked “C”) | C (a value between 20 and 80 is marked “C”)
7 | Cc1c2nnn1Cc1c(c(F)cc3[nH]ccc13)Oc1ccc(F)c(c1)-c1nc(nn1C)C(C)(c1cccc(CCC(=O)O)c1)CCS(=O)(=O)C2 (single isomer, unassigned) [Compound 101B, 3-[3-(23,29-difluoro-3,6,31-trimethyl-9,9-dioxo-25-oxa-9lambda6-thia-3,4,12,13,14,20,32-heptazahexacyclo[24.3.1.12,5.111,14.016,24.017,21]-dotriaconta-1(30),2(32),4,11(31),12,16,18,21,23,26,28-undecaen-6-yl)phenyl]propanoic Acid] | B (a value above 5 °C and less than or equal to 10 °C is marked “B”) | A (a TECC value less than 12 is marked “A”)
8 | COCC(Cc1cccc([C@@]2(C)CCCC(C)(C)CS(=O)(=O)CCc3c(c(F)cc4[nH]ccc34)[S+]([O-])c3ccc(F)c(c3)-c3nc2nn3C)c1)C(=O)O (single isomer, unassigned) [Compound 218A] | B (a value above 5 °C and less than or equal to 10 °C is marked “B”) | A (a TECC value less than 12 is marked “A”)
9 | Cn1nc2nc1-c1cc(ccc1F)Oc1c(F)cc3[nH]ccc3c1CCS(=O)(=O)CC(C)(C)OCCC2(C#N)c1cccc(CC2(C(=O)O)CC2)c1 (single isomer, unassigned) [Compound 123B, 1-[[3-(6-cyano-22,28-difluoro-3,10,10-trimethyl-12,12-dioxo-9,24-dioxa-12λ6-thia-3,4,19,30-tetrazapentacyclo[23.3.1.12,5.015,23.016,20]triaconta-1(29),2(30),4,15,17,20,22,25,27-nonaen-6-yl)phenyl]methyl]cyclopropanecarboxylic Acid] | C (a value greater than 10 °C and less than or equal to 25 °C is marked “C”) | A (a TECC value less than 12 is marked “A”)
10 | [2H]C([2H])([2H])n1nc2nc1-c1cc(ccc1F)Oc1c(F)cc3[nH]ccc3c1CCS(=O)(=O)CC(C)(C)CCCC2(C)c1cccc(OCC(=O)O)c1 (single isomer, unassigned) [Compound 1A, 2-[3-[22,28-Difluoro-6,10,10-trimethyl-12,12-dioxo-3-(trideuteriomethyl)-24-oxa-12λ^6-thia-3,4,19,30-tetrazapentacyclo[23.3.1.1^2,5.0^15,23.0^16,20]triaconta-1(29),2(30),4,15,17,20,22,25,27-nonaen-6-yl]phenoxy]acetic Acid] | C (a value greater than 10 °C and less than or equal to 25 °C is marked “C”) | C (a value between 20 and 80 is marked “C”)
11 | Cn1nc2nc1-c1cc(ccc1F)Oc1c(F)cc3[nH]ccc3c1CCS(=O)(=O)CC(C)(C)CCCC2(C)c1cccc(CC(C)(C)C(=O)O)c1 (single isomer, unassigned) [Compound 29A, 3-[3-(22,28-Difluoro-3,6,10,10-tetramethyl-12,12-dioxo-24-oxa-12lambda6-thia-3,4,19,30-tetrazapentacyclo[23.3.1.12,5.015,23.016,20]triaconta-1(29),2(30),4,15,17,20,22,25,27-nonaen-6-yl)phenyl]-2,2-dimethyl-propanoic acid] | C (a value greater than 10 °C and less than or equal to 25 °C is marked “C”) | C (a value between 20 and 80 is marked “C”)
12 | [2H]C([2H])([2H])C1(c2cccc(CCC(=O)O)c2)CCCC(C)(C)CS(=O)(=O)CCc2c(c(F)cc3[nH]ccc23)Oc2ccc(F)c(c2)-c2nc1nn2C (single isomer, unassigned) [Compound 96A, 3-[3-[22,28-difluoro-3,10,10-trimethyl-12,12-dioxo-6-(trideuteriomethyl)-24-oxa-12lambda6-thia-3,4,19,30-tetrazapentacyclo-[23.3.1.12,5.015,23.016,20]triaconta-1(29),2(30),4,15,17,20,22,25,27-nonaen-6-yl]phenyl]propanoic Acid] | C (a value greater than 10 °C and less than or equal to 25 °C is marked “C”) | A (a TECC value less than 12 is marked “A”)
13 | O=C(O)CCc1cccc(C2NC(=O)CCCS(=O)(=O)CCc3c(c(F)cc4[nH]ccc34)Oc3ccc(F)c(c3)-c3ncc2[nH]3)c1 (single isomer, unassigned) [Compound 80, 3-[3-[22,28-difluoro-8,12,12-trioxo-24-oxa-12lambda6-thia-3,7,19,30-tetrazapentacyclo[23.3.1.12,5.015,23.016,20]triaconta-1(29),2,4,15,17,20,22,25,27-nonaen-6-yl]phenyl]propanoic acid] | B (a value above 5 °C and less than or equal to 10 °C is marked “B”) | A (a TECC value less than 12 is marked “A”)
14 | C[C@@H](Cc1cccc(C2(C)CCCC(C)(C)CS(=O)(=O)CCc3c(c(F)cc4[nH]ccc34)Oc3ccc(F)c(c3)-c3nc2c[nH]3)c1)C(=O)O (single isomer, unassigned) [Compound 129A] | A (an ΔTagg value less than or equal to 5 °C is marked “A”) | A (a TECC value less than 12 is marked “A”)
15 | C[C@H](Cc1cccc([C@@]2(C)CCCC(C)(C)CS(=O)(=O)CCc3c(c(F)cc4[nH]ccc34)Oc3ccc(F)c(c3)C3=NN=C2S3)c1)C(=O)O [Compound 194, (2R)-3-[3-[(6R)-22,28-difluoro-6,10,10-trimethyl-12,12-dioxo-24-oxa-12λ6,30-dithia-3,4,19-triazapentacyclo[23.3.1.12,5.015,23.016,20]triaconta-1(29),2,4,15,17,20,22,25,27-nonaen-6-yl]phenyl]-2-methyl-propanoic Acid] | A (an ΔTagg value less than or equal to 5 °C is marked “A”) | B (a value between 12-20 is marked “B”)
